From patent US20080145858A1, “DETECTION AND IDENTIFICATION OF TOXICANTS BY MEASUREMENT OF GENE […]” (priority 2003, published 2008)

Legend:
[1] = system: Xenopus laevis embryos (stage 8 and stage 15); assay: Verification of microarray analysis by RT-PCR with biotinylated primers; format: in vivo; details: for expression of genes of ESTs PBX0135A08 and PBX013409: microarray and RT-PCR in agreement
From the text: Up-regulation of the clone Nos. PBX0135A08 and PBX0134E09 (underlined and shaded genes in Table 1, Panel A) were verified by RT-PCR of the genes. […] The DNA product obtained by RT-PCR using biotinylated primers of clone No. PBX0135A08 was separated by 1% agarose gel electophoresis and visualized by ethidium bromide staining (FIG. 3, Panel A). The DNA fragments were blotted to a nitrocellulose membrane and visualized by a streptavidin-horseradish peroxidase/ECL system (FIG. 3, Panel B). Though a single band for each reaction was visible in the ethidium bromide stained gel (FIG. 3, Panel A), multiple bands were obtained by the ECL system (FIG. 3, Panel B). When the biotin-labeled DNA in the gel was depurinated and denaturated by treatment with 0.25 M HCl followed by 1.5 M NaCl/0.56 N NaOH, the major 380 bp species were efficiently transferred and similar pattern to that observed using the ECL method was obtained (FIG. 3, Panel C). The effect was also observed with RT-PCR of clone No. PBX0134E09. mRNA levels of clones No. PBX0135A08 and No. PBX013409 increased after PMA treatment at stage 8 (Table 2).
In FIG. 3 the DNA products were obtained from 2 independent RT-PCR reactions using mRNA from untreated blastula stage 8 embryos (lanes 1 and 2), PMA-treated cleavage stage 8 embryos (lanes 3 and 4), untreated neurula stage 15 embryos (lanes 5 and 6), and PMA-treated neurula stage 15 embryos (lane 7 and 8). The 380 bp biotin-labeled DNA fragments were separated by gel electrophoresis on 1% agarose gel without further treatment (panel A and B) or following depurination and denaturation (panel C). In panel A, the DNA was detected by ultraviolet light following ethidium bromide staining. In panels B and C, the DNA was transferred to nitrocellulose membrane and detected by streptavidin-horseradish peroxidase ECL.

Xenopus laevis embryos = assay: Embryonic morphology after PMA treatment; format: in vivo
Procedure: Embryos were sorted for successful cleavage to 2 cells (1.5 hours after fertilization), split into groups for subsequent treatment (triplicate treatments per each experimental group) and visually monitored for normal embryonic morphology. Rates of abnormal morphology were recorded for each group. Embryos at stage 8 were obtained after incubation of the fertilized embryos at 23° C. for 5 hours. PMA (100 ng/ml) or DMSO (0.01%, solvent used to dissolve PMA) was added to the embryos 2 hours after fertilization. […] Embryos at stage 15 were obtained after incubation of the fertilized embryos at 18° C. for 30 hours (the condition produced stage 15 embryos identical to embryos obtained at 23° C. for 10 hours). PMA or DMSO was added to the embryos 21 hours after fertilization.

CCCCCCCCCCCCCC(=O)O[C@@H]1[C@@H](C)[C@@]2(O)[C@@H](C=C(CO)C[C@]3(O)C(=O)C(C)=C[C@@H]23)[C@@H]2C(C)(C)[C@]12OC(C)=O [PMA, phorbol 12-myristate 12-acetate]
expression of genes of ESTs PBX0135A08 and PBX013409 ([1]; cleavage embryos, stage 8): highly up-regulated
expression of genes of ESTs PBX0135A08 and PBX013409 ([1]; embryos undergoing neurulation, stage 15): unaffected
% increase of mRNA expression by RT-PCR ([1]; gene PBX0135A08, Stage 8): 260% of control
% increase of mRNA expression by RT-PCR ([1]; gene PBX0135A08, Stage 15): no change
% increase of mRNA expression by RT-PCR ([1]; gene PBX013409, Stage 8, not detected in control but strong band after PMA treatment): highly induced^b
% increase of mRNA expression by RT-PCR ([1]; gene PBX013409, Stage 15): no change
embryo morphology / developmental stage reached (Xenopus laevis embryos; 100 ng/ml added 2 hours after fertilization, 23° C. for 5 hours, untreated progressed to blastula): remained in a pre-blastula stage
embryo morphology / developmental stage reached (Xenopus laevis embryos; added 21 hours after fertilization, 18° C. for 30 hours, untreated showed typical neurula): in a pre-neurula stage
